Experimental data reported in PubChem BioAssay (NCI).
Where “and” joins values, the source holds several entries; their conditions need not be identical. Equal entries are not always repeated.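 48-hour exposure; five concentrations; linearly interpolated endpoints. At the GI50, growth is halved. At the TGI there is no net growth.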

Key:
Experiment in all cases: NCI tumour cell line growth inhibition, 48 h
HCC-2998 colon = test system: HCC-2998 colon
HCT-15 colon = test system: HCT-15 colon
K-562 leukemia = test system: K-562 leukemia
KM12 colon = test system: KM12 colon
SK-MEL-5 melanoma = test system: SK-MEL-5 melanoma
SNB-19 CNS = test system: SNB-19 CNS
SNB-75 CNS = test system: SNB-75 CNS
NCI-H226 lung = test system: NCI-H226 lung
HS 578T breast = test system: HS 578T breast
MCF7 breast = test system: MCF7 breast

SMILES	TGI (HCC-2998 colon)	TGI (HCT-15 colon)	TGI (K-562 leukemia)	TGI (KM12 colon)	TGI (SK-MEL-5 melanoma)	TGI (SNB-19 CNS) [µM]	TGI (SNB-75 CNS) [µM]	TGI (NCI-H226 lung) [µM]	GI50 (HCC-2998 colon) [µM]	GI50 (HCT-15 colon) [µM]	GI50 (HS 578T breast) [µM]	TGI (HS 578T breast) [µM]	GI50 (KM12 colon) [µM]	GI50 (MCF7 breast) [µM]	TGI (MCF7 breast)	GI50 (NCI-H226 lung) [µM]	GI50 (SK-MEL-5 melanoma) [µM]	GI50 (SNB-19 CNS) [µM]	GI50 (SNB-75 CNS) [µM]
O=S(O)CCCSSCCCCSSCCCS(=O)O	> 100 µM	> 100 µM	> 100 µM	> 100 µM	> 100 µM	> 100	> 100												
CC1CCCC2(O1)OC1CC(=O)OC1C1=C2C(=O)c2ccccc2C1=O (configuration not stated)	8.7 µM	8.04 µM		31.7 µM	4.14 µM	30.5	23.7	4.51											
Cc1cccc(NC(=O)c2sc3nc4c(cc3c2N)CCC4)c1C	22.5 µM	21.3 µM		41 µM	11.1 µM	29.1	0.815	36.8	0.687	0.264	0.486	16	0.407	0.261	13.6 µM	2.65	0.268	0.532	0.189
CC(=O)OC12CCCCC1C1(CCCC1)NC2=O (configuration not stated)	> 100 µM	> 100 µM	> 100 µM	> 100 µM		> 100	> 100	> 100											
COc1cc(OC)c(-c2oc3ccccc3c(=O)c2O)c(OC)c1		> 100 µM	> 100 µM	> 100 µM	> 100 µM	> 100	> 100	> 100				24.2			> 100 µM				
CC(=O)NC(Cc1ccccc1)C(=S)N1CCCC1 (configuration not stated)	> 100 µM	> 100 µM	> 100 µM	> 100 µM	> 100 µM	> 100	> 100	> 100											
CCN(CC)CC(C(=O)Nc1c(C)cccc1C)/C(C)=N/NC(N)=S (configuration not stated)	> 100 µM		> 100 µM	> 100 µM	> 100 µM		> 100	> 100											
O=c1[nH]c2cccccc-2c1-c1nc2ccccc2[nH]1	> 100 µM	> 100 µM	> 100 µM	> 100 µM	47.6 µM	88	30.2	35.6											
Oc1c(Br)cc(Br)c2cccnc12	18.8 µM	31.1 µM		23.4 µM	5.19 µM	> 100	> 100	30.2	3.61	4.84	5.73	> 100	4.17	4.48	> 100 µM	5.09	2.09	3.99	10.7
COC(=O)c1c(OC(=O)c2ccccc2)noc1CC(=O)OC1C=CCCC1 (configuration not stated)	> 100 µM	> 100 µM	> 100 µM	> 100 µM	81.7 µM	> 100	> 100	> 100											
COc1cccc2c1C(=N)c1c(O)c3c(c(O)c1C2=O)C[C@@](O)(C(C)=O)C[C@@H]3OC1CC(N)C(O)C(C)O1 (some centres not stated)	2.48 µM and 3.14 µM and 0.541 µM	28 µM and 32.8 µM	3.34 µM and 14.8 µM and 6.67 µM	2.55 µM and 1.94 µM and 10.4 µM	1.55 µM and 1.74 µM and 1.98 µM										24.8 µM and 13.4 µM				
